Source: US9844550B2, “Phtalazinone derivatives and manufacturing process thereof” (ILDONG PHARM CO., LTD., priority 2013, dated 2017)
pIC50: −log10 of the molar value.

Test system: MDA-MB-436 breast cancer cell line
Test: Cell viability assay (MDA-MB-436)
Type: cell-based
Conditions: Homo sapiens, 144 h; MDA-MB-436 cells, treated 6 days
Method: 2. Cell Viability Assay (MDA-MB-436)
Cell viability assay was performed by using MDA-MB-436 cell line to measure cytotoxicity of compounds in the present invention. MDA-MB-436 breast cancer cell line was seeded into 96-well plates at 37° C. under 5% CO2 atmosphere using DMEM/F12 (Gibco) containing 10% FBS (Hyclone). After 24 hr incubation, cells were treated with the invented compounds at various concentrations for 6 days. The medium was changed every 3 day. 6 days later, A fluorescence reagent was used to determine the IC50 values.

pIC50	SMILES
7.30 to 8.30	N#Cc1cnc(N[C@@H]2CCN(C(=O)c3cc(Cc4n[nH]c(=O)c5ccccc45)ccc3F)C2)nc1 [Compound I-126, (R)-2-((1-(2-fluoro-5-((4-oxo-3,4-dihydrophthalazin-1-yl)methyl)benzoyl)pyrrolidin-3-yl)amino)pyrimidine-5-carbonitrile]
6.52 to 7.30	O=C(c1cc(Cc2n[nH]c(=O)c3ccccc23)ccc1F)N1CC(NCCC(F)(F)F)C1 [Compound I-134, 4-(4-fluoro-3-(3-((3,3,3-trifluoropropyl)amino)azetidine-1-carbonyl)benzyl)phthalazin-1(2H)-one]
6.00 to 6.52	CN(C)[C@H]1CCN(C(=O)C2CN(C(=O)c3cc(Cc4n[nH]c(=O)c5ccccc45)ccc3F)C2)C1 [Compound I-24, (S)-4-(3-(3-(3-(dimethylamino)pyrrolidine-1-carbonyl)azetidine-1-carbonyl)-4-fluorobenzyl)phthalazin-1(2H)-one]
6.00 to 6.52	CCOC(=O)C1=C(NC2CN(C(=O)c3cc(Cc4n[nH]c(=O)c5ccccc45)ccc3F)C2)CCC1 [Compound I-39, ethyl 2-((1-(2-fluoro-5-((4-oxo-3,4-dihydrophthalazin-1-yl)methyl)benzoyl)azetidin-3-yl)amino)cyclopent-1-enecarboxylate]
7.30 to 8.30	C[C@@H](NC1CN(C(=O)c2cc(Cc3n[nH]c(=O)c4ccccc34)ccc2F)C1)C(C)(C)C [Compound I-86, (R)-4-(3-(3-((3,3-dimethylbutan-2-yl)amino)azetidine-1-carbonyl)-4-fluorobenzyl)phthalazin-1(2H)-one]
6.52 to 7.30	O=C(c1cc(Cc2n[nH]c(=O)c3ccccc23)ccc1F)N1CC(C(=O)N2CCCC2)C1 [Compound I-22, 4-(4-fluoro-3-(3-(pyrrolidine-1-carbonyl)azetidine-1-carbonyl)benzyl)phthalazin-1(2H)-one]
7.30 to 8.30	O=C(c1cc(Cc2n[nH]c(=O)c3ccccc23)ccc1F)N1CC(CNCC2CC2)C1 [Compound I-145, 4-(3-(3-(((cyclopropylmethyl)amino)methyl)azetidine-1-carbonyl)-4-fluorobenzyl)phthalazin-1(2H)-one]
7.30 to 8.30	CC(C)CC(C)NC1CN(C(=O)c2cc(Cc3n[nH]c(=O)c4ccccc34)ccc2F)C1 (stereo not shown) [Compound I-46, 4-(4-fluoro-3-(3-((4-methylpentan-2-yl)amino)azetidine-1-carbonyl)benzyl)phthalazin-1(2H)-one]
6.00 to 6.52	O=C(c1cc(Cc2n[nH]c(=O)c3ccccc23)ccc1F)N1CC[C@H](Nc2ncccn2)C1 [Compound I-110, (S)-4-(4-fluoro-3-(3-(pyrimidin-2-ylamino)pyrrolidine-1-carbonyl)benzyl)phthalazin-1(2H)-one]
6.00 to 6.52	N#CC1(CNCC2CN(C(=O)c3cc(Cc4n[nH]c(=O)c5ccccc45)ccc3F)C2)CC1 [Compound I-151, 1-((((1-(2-fluoro-5-((4-oxo-3,4-dihydrophthalazin-1-yl)methyl)benzoyl)azetidin-3-yl)methyl)amino)methyl)cyclopropanecarbonitrile]
6.52 to 7.30	O=C(c1cc(Cc2n[nH]c(=O)c3ccccc23)ccc1F)N1CC(N2CCCCC2)C1 [Compound I-77, 4-(4-fluoro-3-(3-(piperidin-1-yl)azetidine-1-carbonyl)benzyl)phthalazin-1(2H)-one]
6.00 to 6.52	O=C(c1cc(Cc2n[nH]c(=O)c3ccccc23)ccc1F)N1CC[C@@H](NC2CC2)C1 [Compound I-29, (R)-4-(3-(3-(cyclopropylamino)pyrrolidine-1-carbonyl)-4-fluorobenzyl)phthalazin-1(2H)-one]
7.30 to 8.30	CC(C)=CCNC1CN(C(=O)c2cc(Cc3n[nH]c(=O)c4ccccc34)ccc2F)C1 [Compound I-54, 4-(4-fluoro-3-(3-((3-methylbut-2-en-1-yl)amino)azetidine-1-carbonyl)benzyl)phthalazin-1(2H)-one]
7.30 to 8.30	C=CCNC1CN(C(=O)c2cc(Cc3n[nH]c(=O)c4ccccc34)ccc2F)C1 [Compound I-51, 4-(3-(3-(allylamino)azetidine-1-carbonyl)-4-fluorobenzyl)phthalazin-1(2H)-one]
6.00 to 6.52	O=C(c1cc(Cc2n[nH]c(=O)c3ccccc23)ccc1F)N1CC[C@H](Nc2ccc(Cl)nn2)C1 [Compound I-112, (S)-4-(3-(3-((6-chloropyridazin-3-yl)amino)pyrrolidine-1-carbonyl)-4-fluorobenzyl)phthalazin-1(2H)-one]
≥ 8.30	CC(C)NCC1CN(C(=O)c2cc(Cc3n[nH]c(=O)c4ccccc34)ccc2F)C1 [Compound I-144, 4-(4-fluoro-3-(3-((isopropylamino)methyl)azetidine-1-carbonyl)benzyl)phthalazin-1(2H)-one]
7.30 to 8.30	CC1(C)CCCC1NC1CN(C(=O)c2cc(Cc3n[nH]c(=O)c4ccccc34)ccc2F)C1 (stereo not shown) [Compound I-38, 4-(3-(3-((2,2-dimethylcyclopentyl)amino)azetidine-1-carbonyl)-4-fluorobenzyl)phthalazin-1(2H)-one]
6.52 to 7.30	CN(C1CC1)C1CN(C(=O)c2cc(Cc3n[nH]c(=O)c4ccccc34)ccc2F)C1 [Compound I-69, 4-(3-(3-(cyclopropyl(methyl)amino)azetidine-1-carbonyl)-4-fluorobenzyl)phthalazin-1(2H)-one]

Continued, compound first:

SMILES	pIC50
O=C(c1cc(Cc2n[nH]c(=O)c3ccccc23)ccc1F)N1CC(NCCCC(F)(F)F)C1 [Compound I-56, 4-(4-fluoro-3-(3-((4,4,4-trifluorobutyl)amino)azetidine-1-carbonyl)benzyl)phthalazin-1(2H)-one]	6.00 to 6.52
CCCC(C)NC1CN(C(=O)c2cc(Cc3n[nH]c(=O)c4ccccc34)ccc2F)C1 (stereo not shown) [Compound I-48, 4-(4-fluoro-3-(3-(pentan-2-ylamino)azetidine-1-carbonyl)benzyl)phthalazin-1(2H)-one]	≥ 8.30
CC(C)[C@H](C)NC1CN(C(=O)c2cc(Cc3n[nH]c(=O)c4ccccc34)ccc2F)C1 [Compound I-89, (S)-4-(4-fluoro-3-(3-((3-methylbutan-2-yl)amino)azetidine-1-carbonyl)benzyl)phthalazin-1(2H)-one]	7.30 to 8.30
CC1(C)NC(=O)N(C2CN(C(=O)c3cc(Cc4n[nH]c(=O)c5ccccc45)ccc3F)C2)C1=O [Compound I-14, 3-(1-(2-fluoro-5-((4-oxo-3,4-dihydrophthalazin-1-yl)methyl)benzoyl)azetidin-3-yl)-5,5-dimethylimidazolidine-2,4-dione]	6.52 to 7.30
CC1(NC2CN(C(=O)c3cc(Cc4n[nH]c(=O)c5ccccc45)ccc3F)C2)CC1 [Compound I-85, 4-(4-fluoro-3-(3-((1-methylcyclopropyl)amino)azetidine-1-carbonyl)benzyl)phthalazin-1(2H)-one]	≥ 8.30
CN(Cc1ccncc1)[C@@H]1CCN(C(=O)c2cc(Cc3n[nH]c(=O)c4ccccc34)ccc2F)C1 [Compound I-61, (R)-4-(4-fluoro-3-(3-(methyl(pyridin-4-ylmethyl)amino)pyrrolidine-1-carbonyl)benzyl)phthalazin-1(2H)-one]	6.52 to 7.30
O=C(c1cc(Cc2n[nH]c(=O)c3ccccc23)ccc1F)N1CC(C(=O)N2CCC(F)(F)C2)C1 [Compound I-19, 4-(3-(3-(3,3-difluoropyrrolidine-1-carbonyl)azetidine-1-carbonyl)-4-fluorobenzyl)phthalazin-1(2H)-one]	6.52 to 7.30
CN(c1ccc(Cl)nn1)C1CN(C(=O)c2cc(Cc3n[nH]c(=O)c4ccccc34)ccc2F)C1 [Compound I-115, 4-(3-(3-((6-chloropyridazin-3-yl)(methyl)amino)azetidine-1-carbonyl)-4-fluorobenzyl)phthalazin-1(2H)-one]	6.00 to 6.52
CN(C1CCC1)C1CN(C(=O)c2cc(Cc3n[nH]c(=O)c4ccccc34)ccc2F)C1 [Compound I-71, 4-(3-(3-(cyclobutyl(methyl)amino)azetidine-1-carbonyl)-4-fluorobenzyl)phthalazin-1(2H)-one]	6.52 to 7.30
O=C(c1cc(Cc2n[nH]c(=O)c3ccccc23)ccc1F)N1CC(N(c2ncccn2)C2CCC2)C1 [Compound I-116, 4-(3-(3-(cyclobutyl(pyrimidin-2-yl)amino)azetidine-1-carbonyl)-4-fluorobenzyl)phthalazin-1(2H)-one]	6.00 to 6.52
O=C(c1cc(Cc2n[nH]c(=O)c3ccccc23)ccc1F)N1CC[C@@H](Nc2ccccn2)C1 [Compound I-128, (R)-4-(4-fluoro-3-(3-(pyridin-2-ylamino)pyrrolidine-1-carbonyl)benzyl)phthalazin-1(2H)-one]	7.30 to 8.30
CCN(CC1CN(C(=O)c2cc(Cc3n[nH]c(=O)c4ccccc34)ccc2F)C1)C1CC1 [Compound I-155, 4-(3-(3-((cyclopropyl(ethyl)amino)methyl)azetidine-1-carbonyl)-4-fluorobenzyl)phthalazin-1(2H)-one]	6.52 to 7.30
CC(C)CCNC1CN(C(=O)c2cc(Cc3n[nH]c(=O)c4ccccc34)ccc2F)C1 [Compound I-52, 4-(4-fluoro-3-(3-(isopentylamino)azetidine-1-carbonyl)benzyl)phthalazin-1(2H)-one]	≥ 8.30
CC(C)(C)CNC1CN(C(=O)c2cc(Cc3n[nH]c(=O)c4ccccc34)ccc2F)C1 [Compound I-37, 4-(4-fluoro-3-(3-(neopentylamino)azetidine-1-carbonyl)benzyl)phthalazin-1(2H)-one]	7.30 to 8.30
O=C(c1cc(Cc2n[nH]c(=O)c3ccccc23)ccc1F)N1CC(NCC2CCCC2)C1 [Compound I-55, 4-(3-(3-((cyclopentylmethyl)amino)azetidine-1-carbonyl)-4-fluorobenzyl)phthalazin-1(2H)-one]	7.30 to 8.30
CCN(c1ncccn1)[C@@H]1CCN(C(=O)c2cc(Cc3n[nH]c(=O)c4ccccc34)ccc2F)C1 [Compound I-121, (R)-4-(3-(3-(ethyl(pyrimidin-2-yl)amino)pyrrolidine-1-carbonyl)-4-fluorobenzyl)phthalazin-1(2H)-one]	6.00 to 6.52
